From US20110098309A1, “METHODS OF INHIBITING THE FORMATION OF AMYLOID-BETA DIFFUSABLE LIGANDS USING ACYLHYDRAZIDE COMPOUNDS” (priority 2007, published 2011)
Values joined by “and” are separate entries in the source; they are usually repeats but may differ in a detail not shown here. Equal values may be shown once.

Tests used:
[1] = target: Aβ1-42 (Homo sapiens, UniProt P05067); assay: FRET assay of Aβ1-42 oligomer (ADDL) assembly inhibition; format: biochemical; conditions: 0.2 μM FITC-Aβ(1-42) and 0.8 μM Aβ(1-42), 37° C., six concentrations from about 10 μM to about 0.03 μM
Outline: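 Fluorescein-quenching FRET read with 0.2 μM FITC-Aβ(1-42) plus 0.8 μM Aβ(1-42) in 25 mM MOPS-Tris pH 8.0, 100 mM MgCl2, 37° C. Compound tested at six concentrations from about 10 μM down to about 0.03 μM. Fluorescence read every five minutes over about three hours; inhibition seen as absent or attenuated quenching.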

[2] = target: T1, Aβ1-42 ADDLs (Homo sapiens, UniProt P05067); assay: Alternating Lever Cyclic Ratio (ALCR) rat model; format: in vivo; conditions: for Approach Errors / Perseveration Errors: injection via cannula into lateral ventricle, compared to baseline error rates
T1 construct: Synthetic Aβ1-42 powder was dissolved in 1,1,1,3,3,3-hexafluorisopropanol (HFIP)
Method: Preparations of Aβ1-42 ADDLs and a potential therapeutic compound under the Alternating Lever Cyclic Ratio (ALCR) rat model of AD were tested to show in vivo efficacy. This highly sensitive model has been able to detect cognitive deficits due to direct injection of cell-derived Aβ oligomers into rat brain. Using this technique, a direct injection of ADDLs made from synthetic Aβ1-42 and a putative therapeutic compound under the ALCR procedure were tested.
In this task, rats learned a complex sequence of lever-pressing requirements in order to earn food reinforcement in a two-lever experimental chamber. Subjects alternated between two levers by switching to the other lever after pressing the first lever enough to get food reward. The exact number of presses required for each food reward changed, first increasing from 2 responses per food pellet up to 56 presses per food pellet, then decreasing back to 2 responses per pellet. Intermediate values were based on the quadratic function, x^2−x. One cycle was an entire ascending and descending sequence of these lever press requirements (e.g., 2, 6, 12, 20, 30, 42, 56, 56, 42, 30, 20, 12, 6, and 2 presses per food reward). Six such full cycles were presented during each daily session.
Synthetic Aβ1-42 powder was dissolved in 1,1,1,3,3,3-hexafluorisopropanol (HFIP) to afford a solution of Aβ1-42 in HFIP of about 1 mM and allowed to incubate at ambient temperature for about 1 h. The resulting solution was chilled on ice for about 5-10 min, then aliquoted into eppendorf tubes to provide about 50 μL of solution per tube. The tubes were then placed in a chemical fume hood and allowed to stand overnight to allow the HFIP to evaporate under a slow stream of nitrogen. To remove final traces of HFIP, the tubes were subjected to two SpeedVac cycles of 15 min at room temperature and about 15 to 25 mm Hg of vacuum. The resulting films of monomerized Aβ1-42 peptide were stored over desiccant at −80° C. until used.
A tube of monomerized Aβ1-42 peptide was warmed to room temperature and the Aβ1-42 peptide was dissolved in anhydrous DMSO to afford a peptide stock DMSO solution containing about 10 μM to about 100 μM Aβ1-42 peptide in DMSO.
The concentration of the test compound is listed below in Table 3.
For the Aβ1-42 peptide only treatment, peptide stock DMSO solution was added to 37° C. neural basal to obtain the requisite Aβ1-42 peptide monomer concentration, provided that the maximum concentration of DMSO is 1% or less, and the tube was vortexed for 30 to 60 seconds, spun down briefly in a microfuge and incubated at 37° C. for 15 min prior to the start of injections.
For the Aβ1-42 peptide plus test compound treatment, peptide stock DMSO solution was added to 37° C. compound neural basal media solution to obtain the requisite Aβ1-42 peptide monomer concentration, provided that the maximum concentration of DMSO is 1% or less, and the tube was vortexed for 30 to 36 seconds, spun down briefly in a microfuge and incubated at 37° C. for 15 min prior to the start of injections.
For control injections, compound neural basal media solution was incubated at 37° C. for 15 min prior to the start of injections.
Rats: Rats are trained under ALCR until their error rates are stable. Once the rats are placed upon the final ALCR procedure, training sessions are conducted 7 days each week until the end of the study.
Surgery: All rats received a single 28 gauge cannula, which was permanently affixed to the skull, and aimed at the lateral ventricle. Half of the rats received cannula in the right ventricle and half receive cannula in the left ventricle. Rats were allowed 5 days to recover from surgery before training resumed.
Injection of Test Material and ALCR Testing: Test were conducted about every fourth day. Animals received a 10-20 μL injection of control, peptide, or peptide plus compound solutions via the implanted cannula over about 3 to 4 minutes. Animals were tested about 3 hours following injection. […]

[3] = 1 nM ADDLs + 2 μM compound, rats tested about 3 hours after injection
[4] = 2 μM compound alone (no ADDLs), rats
[5] = ADDLs injected along with compound, rats
[6] = 27 nM Aβ1-42 monomer alone, rats

T1 sequence (P05067 672-713 limits assumed): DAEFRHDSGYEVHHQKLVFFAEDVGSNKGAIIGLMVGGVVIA
Chain of Aβ1-42 (P05067 672-713 limits assumed): as above

| IC50 [1] | Approach Errors [2, 3] | Perseveration Errors [2, 3] | Approach Errors [2, 4] | Perseveration Errors [2, 4] | Perseveration error (in words) [2, 5] | Approach Errors [2, 6] | Perseveration Errors [2, 6] | Molecule | Approach Errors ([2]; 1 nM ADDLs alone, rats) | Perseveration Errors ([2]; 1 nM ADDLs alone, rats) | Perseveration error (in words) ([2]; ADDLs compared to vehicle or Aβ1-42 monomer alone, rats) |
| --- | --- | --- | --- | --- | --- | --- | --- | --- | --- | --- | --- |
| 4.5 µM | 115% | 105% | 92% | 85% | decreased significantly |  |  | O=C(C/C(=N/NC(=O)c1ccccc1O)C(F)(F)F)c1cccs1 [Compound 2, 2-hydroxy-N′-(1,1,1-trifluoro-4-oxo-4-(thiophen-2-yl)butan-2-ylidene)benzohydrazide] |  |  |  |
|  | 100% and 111% | 92% and 107% | 101% | 112% | decreased significantly |  |  | O=C(N/N=C/c1c(O)ccc2ccccc12)c1ccccc1O [Compound 89, 2-hydroxy-N′-((2-hydroxy-naphthalen-1-yl)methylene)benzohydrazide] |  |  |  |
|  |  |  |  |  |  |  |  | ADDLs: amyloid beta-derived diffusable ligands: soluble, oligomeric, globular, non-fibrillar, neurotoxic Aβ1-42 peptides, made from synthetic Aβ1-42 [reference compound] | 102% and 142% | 133% and 127% | increased the Perseveration error |
|  |  |  |  |  |  | 105% | 117% | Aβ1-42 Monomer: monomerized synthetic Aβ1-42 peptide [reference compound] |  |  |  |
